From ChEMBL document CHEMBL3272024, “(Acylaryloxy)acetic acid diuretics. 1. (2-Alkyl- and 2,2-dialkyl-1-oxo-5-indanyloxy)acetic acids” (J Med Chem, 1977) come the findings set out here.

The subject of data set [1] is Canis familiaris. Description: Diuretic activity in dog assessed as urine volume collected for 2 hrs at 1.5 mg/kg, iv over a period of 5 mins (reference value: 1 mL). The format is functional, Canis lupus familiaris.
In data set [2] the test system is Canis familiaris. Description: Diuretic activity in dog assessed as chloride level in urine collected for 2 hrs at 1.5 mg/kg, iv over a period of 5 mins (reference value: 1 microEq). It counts as functional, Canis lupus familiaris.
The subject of data set [3] is Pan troglodytes. Description: Natriuretic activity in chimpanzee assessed as change sodium level in urine measured per min at 5 mg/kg, po. The format is functional.
Data set [4] has as its system Canis familiaris. Nature of the data set: Diuretic activity in dog assessed as potassium level in urine collected for 2 hrs at 1.5 mg/kg, iv over a period of 5 mins (reference value: 18 microEq). The format is functional, Canis lupus familiaris.
Data set [5] concerns Pan troglodytes. Nature of the data set: Ratio of change in urate excretion to change in inulin excretion in chimpanzee in urine at 5 mg/kg, po. The format is functional.
Data set [6] relates to Canis familiaris. Description: Diuretic activity in dog assessed as sodium level in urine collected for 2 hrs at 1.5 mg/kg, iv over a period of 5 mins (reference value: 29 microEq). It counts as functional, Canis lupus familiaris.
Data set [7] relates to Canis familiaris. Description: Diuretic activity in dog assessed as sodium level in urine collected for 2 hrs at 5 mg/kg, iv over a period of 5 mins (reference value: 5 to 30 microEq). It counts as functional, Canis lupus familiaris.
Data set [8] deals with Canis familiaris. Description: Diuretic activity in dog assessed as chloride level in urine collected for 2 hrs at 5 mg/kg, iv over a period of 5 mins (reference value: 1 to 10 microEq). The format is functional, Canis lupus familiaris.
In a further data set the test system is Rattus norvegicus. Description: Natriuretic activity in po dosed Charles River rat assessed as sodium level in urine per cage collected 0.5 hrs interval relative to 2-(3,6,7-trimethyl-1-oxo-2,3-dihydro-1H-inden-5-yloxy)acetic acid. The format is functional.
Data set [9] is described as follows: Acute toxicity in iv dosed mouse. The format is organism-based. The conditions noted are these: in vivo.
Data set [10] concerns Canis familiaris. Nature of the data set: Diuretic activity in dog assessed as urine volume collected for 2 hrs at 5 mg/kg, iv over a period of 5 mins (reference value: 1 to 2 mL). It counts as functional, Canis lupus familiaris.
Data set [11] deals with Canis familiaris. Nature of the data set: Diuretic activity in dog assessed as potassium level in urine collected for 2 hrs at 5 mg/kg, iv over a period of 5 mins (reference value: 5 to 30 microEq). The format is functional, Canis lupus familiaris.

The term LD50 denotes the dose expected to kill half of the subjects tested. A lower LD50 goes with greater toxicity.

As for `NS(=O)(=O)c1cc(C(=O)O)c(NCc2ccco2)cc1Cl` [FUROSEMIDE], the Activity in the data set with Canis familiaris [1] came out at 3 mL; with Canis familiaris [2], 1081 uEq; in the data set with Pan troglodytes [3], 1035 uEq; with Canis familiaris [4] it was 141 uEq; in the data set on Canis familiaris [6], 960 uEq. Also, the Ratio in the data set with Pan troglodytes [5] is recorded as -0.02.

In the case of `CC(C)C1Cc2cc(OCC(=O)O)c(Cl)c(Cl)c2C1=O` (centres undefined), the Activity was found to be 281 uEq in the data set on Canis familiaris [7]; 330 uEq in the data set with Canis familiaris [8]; 649 uEq in the data set on Pan troglodytes [3]; 4 mL in the data set with Canis familiaris [10]; 44 uEq with Canis familiaris [11]. For the same molecule, the Ratio was found to be 3.2 in the data set on Rattus norvegicus and 0.18 in the data set with Pan troglodytes [5]. In [9], this molecule returned an LD50 of 505 mg/kg.
